# Measured values: patent US5998366A, “Method for ameliorating glutamic acid decarboxylase associated autoimmune disorders” (The Regents of the University of California, priority 1997, dated 1999)
# What was measured:
# [1] = tested on: IDDM autoantibodies in sera of human patients; assay: Immunoprecipitation of 35S-labeled GAD65 segments by IDDM patient sera; type: binding; conditions: 22 IDDM patient sera, 30 μl serum
# Source text: Portions of human GAD65 cDNA were amplified by the polymerase chain reaction (PCR; Saiki, et al., Science, 239:487, 1988) to produce DNA segments encoding three polypeptide segments: amino acid residues 1-224 (segment A); 224-398 (segment B); and 398-585 (segment C). Each construct also contained a T7 promoter, a consensus sequence for the initiation of translation and an initiating methionine codon (Korak, M., J. Cell Biol., 108:229, 1989). Each PCR product was then trascribed in vitro with T7 RNA polymerase and translated in vitro in a rabbit reticulocyte cell-free system in the presence of ^35 S-methionine, using conditions recommended by the supplier (Amersham Corp., Arlington Heights, Ill.). Each test serum (30 μl) was incubated with the resulting ^35 S labeled-polypeptides. The bound peptides were isolated with PAS and analyzed by SDS-PAGE in 12% polyaacrylamide and autoradiography.
# spleen cells of NOD mice = assay: Proliferative recall response of spleen cells to β-cell antigens, by age; type: cell-based; conditions: female NOD mice, 10 μg/ml antigen or 7 μM peptide, 72 h culture (FIG. 8)
# Procedure: NOD (Taconic farms) and BALB/c mice (Jackson Laboratories) were kept under specific pathogen free conditions. The mice were sacrificed at the ages indicated and the spleen cells were tested directly ex vivo for their proliferative recall response to antigen. Single cell suspensions of spleen cells were plated at 1×10^6 cells per well in 96 well microtiter plates in 200 μl serum free HL-1 medium (Ventrex) that was supplemented with 2 mM glutamine with or without 10 μg/ml antigen (or 7 μM peptide) in triplicate cultures. During the last 16 h of the 72 h culture period, 1 μCi[^3 H]-thymidine was added per well. Incorporation of label was measured by liquid scintillation counting.
# Both human GAD65 (Bu, et al., Proc. Natl. Acad. Sci., 89:2115-2119, 1992) and E. coli β-gal (control) were purified from recombinant bacteria on the basis of a hexahistidine tag which allows their rapid affinity purification by metal affinity chromatography (Hochuli, et al., Bio/Technology, 6:1321-1325, 1988). Bovine CPH was the generous gift of L. Fricker (Albert Einstein Col. Med.) and human insulin was purchased from Eli Lilly.
# [2] = molecular target: T1, 64 kD pancreatic polypeptide (Homo sapiens, UniProt Q05329); assay: Prior absorption of patient sera, then immunoprecipitation of the 64 kD islet cell polypeptide; type: binding
# T1 construct: antibodies which recognize specific polypeptides produced in human pancreatic islet cells; endogenous in cells; host or cells: human pancreatic islet cells from cadaveric pancreas, metabolically labelled with 35S-methionine
# Source text: 4. Human Islet Cells. Human pancreatic islets were isolated from cadaveric pancreases and maintained in vitro as previously described (Ricordi, et al., Diabetes, 37:413-420, 1988). The islet cells were metabolically labeled with ^35 S methionine (Amersham, Arlington Heights, Ill.) in vitro (95% air/5%CO2).
# 5. Islet Cell Extractions and Immunoprecipitations. Islet cells were extracted as previously described by Atkinson, et al. (Lancet, 335:1357-1360, 1990) with the following modifications. […] Following another incubation with protein A Sepharose CL-4B (1 h, 4° C.), the complexes were then washed 5 times with 50 mM Tris HCL (pH 7.4) with 0.1% SDS, 1.0% Triton X-114, and 2 mM EDTA, and then washed again one time in double distilled water. The protein A Sepharose CL-4B was then boiled in Laemmli sample buffer (Laemmli, Nature, 227:680-685, 1970), and the samples were subjected to SDS-PAGE and fluororadiography (Kodak, X-omat AR5) using Enhance (New England Nuclear). Alternatively, the autoradiographs were analyzed by a BETAGEN (Boston, Mass.) analyzer. Both 64 KA positive and negative sera were used in each assay, to serve as interassay controls. All fluororadiographs were analyzed and rated as positive or negative after comparison with the known interassay controls.
# female NOD mice [3] = assay: GAD immunization of 8 week old NOD mice, onset of IDDM; type: in vivo; conditions: again every 6 weeks
# Source text: An IPTG inducible T7 expression vector was used to express both human GAD65 and E. coli b galactosidase (β-gal). In IPTG induced recombinant E. coli, GAD and β-gal constitute about 10-20% of the total bacterial protein. However, almost all of the GAD was in inclusion bodies, which could be isolated and extensively washed to obtain material that is about 80% GAD. We then did affinity purifications of GAD and β-gal on the basis of a hexa-histidine "tag" which was attached to GAD during the subcloning process. These extra histidine residues allow the rapid affinity purification (Novagen) of GAD by metal affinity chromatography (Hochuli, et al., Bio Technology, 6:1321-1325, 1988). The inclusion body material is solubilized in 6M guanidine hydrochloride (GHCL), 10 mm β-mercaptoethanol and 1% triton X-100. After binding to the column, the column was extensively washed with GHCL and 8M urea in phosphate buffers. Only the central peak GAD fraction was utilized for subsequent studies. Human GAD65 shares 96% amino acid sequence identity with murine GAD65, with most of the amino acid differences being conservative substitutions.
# Breeder mice were purchased from Taconic Farms and housed under specific pathogen-free conditions. Only female NOD mice were used in this study. The average age of IDDM onset in unrelated females in the colony was 22 weeks. Insulitis is generally observed beginning at 4 weeks of age. T cell responses to GAD, HSP, CPH were found by 6 weeks in age. The incidence of IDDM in female mice is 70-90% by one year of age.
# At 8 weeks of age, 25 ug GAD or control β-gal. was injected intraperftoneally (ip) in 100 ul of incomplete Freunds adjuvant (IFA). Because there may be a requirement for continual antigen presentation (Ramsdell, et al., Science, 257:1130-1133, 1992) mice were treated again every 6 weeks. Urine glucose levels were monitored twice weekly. After observing above normal glucose in urea, blood glucose levels were monitored twice weekly. Two consecutive blood glucose level readings of […] was considered as IDDM onset, after which the mice were sacrificed and spleen cells were tested as described above in Example 6 for evidence of spleen cell proliferation.
# female NOD mice [4] = assay: Insulitis score after tolerance induction; type: in vivo; conditions: Table 8A: i.v. injection at 3 weeks of age in PBS, examined at 12 weeks; scale 0-4; mean ± SE
# Procedure: 1. In these experiments female NOD mice were intravenously injected at 3 weeks of age with 50 μg GAD, μ-galactosidase, mycobacterial hsp65 (m-hsp) or 0.1 μg of the immunodominant hsp peptide (hsp-p), in PBS. At 12 weeks of age, mice were examined for insulitis and autoantigen reactive T-cells. At this age both indications are established in untreated NOD mice. Pancreatic tissue sections were stained by immunoperoxidase techniques for insulin and were counterstained with hematoxylin. Insulitis was scored in a blinded manner by examining 54 to 87 islets on 5 interrupted tissue sections from each pancreas. Proliferative splenic T-cell responses induced by various antigens were performed as described above in Example 4. Data in Table 8 are expressed as the average [^3 H]-thymidine label (cpm) incorporated in triplicate cultures.
# 2. In a second set of experiments neonatal female NOD mice were injected intraperitoneally IFA with peptide 11, a mixture of peptides 34 and 35 plus IFA, or with IFA alone and at 12 weeks of age the mice were examined for insulitis and autoantigen reactive T-cells as in Example 6.1. Proliferative splenic T-cell responses induced by the various antigens were performed as in Example 4, and data in Table 8B are expressed as the average [^3 H]-thymidine label (cpm) incorporated in triplicate cultures.
# 3. In a third set of experiments female NOD mice were intravenously injected at three weeks of age with peptide 11 (control), a mixture of peptides 34 and 35 plus IFA, or with HEL peptides and at 12 weeks of age the mice were examined for insulitis and autoantigen reactive T-cells as in Example 6.1. Proliferative splenic T-cell responses induced by the various antigens were performed as in Example 4, and data in Table 8C are expressed as the average [^3 H]-thymidine label (cpm) incorporated in triplicate cultures.
# [5] = tested on: spleen cells of treated female NOD mice; assay: Proliferative splenic T-cell responses to antigens after tolerance induction; type: in vivo; conditions: Table 8A: i.v. at 3 weeks, tested at 12 weeks
# T1 sequence (Q05329 whole entry): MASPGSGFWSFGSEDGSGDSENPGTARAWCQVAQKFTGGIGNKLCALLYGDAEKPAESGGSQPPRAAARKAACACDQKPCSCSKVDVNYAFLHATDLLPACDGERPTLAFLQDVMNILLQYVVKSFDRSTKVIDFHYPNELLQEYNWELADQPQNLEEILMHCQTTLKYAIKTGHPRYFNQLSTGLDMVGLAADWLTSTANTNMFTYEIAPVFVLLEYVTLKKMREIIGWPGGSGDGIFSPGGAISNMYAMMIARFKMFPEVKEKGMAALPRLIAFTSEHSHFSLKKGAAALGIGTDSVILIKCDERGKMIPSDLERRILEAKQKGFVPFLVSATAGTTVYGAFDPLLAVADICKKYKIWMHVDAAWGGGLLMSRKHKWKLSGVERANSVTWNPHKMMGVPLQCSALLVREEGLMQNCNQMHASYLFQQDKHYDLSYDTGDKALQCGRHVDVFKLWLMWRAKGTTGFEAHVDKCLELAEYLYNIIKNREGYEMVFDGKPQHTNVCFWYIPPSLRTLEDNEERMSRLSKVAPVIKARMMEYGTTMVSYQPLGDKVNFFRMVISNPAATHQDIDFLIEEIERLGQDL
molecule,measurement,setting,value
"segment B: human GAD65 amino acid residues 224-398, translated in vitro, 35S labeled",patients with antibodies reactive with the segment,[1],41%
"CPH: bovine carboxypeptidase H, gift of L. Fricker [reference compound]",age at which the proliferative T-cell response to the antigen appeared,spleen cells of NOD mice,≤ 8 weeks
"bacterially produced GAD65: GAD65 expressed in bacteria, used to absorb patient sera",ability of the absorbed sera to recognize the 64 kD pancreatic polypeptide,[2],abolished
β-Gal.: E. coli β-galactosidase (control antigen) purified from recombinant bacteria by hexahistidine tag [reference compound],mice that developed IDDM by 27 weeks in age,female NOD mice [3]; 25 ug ip in IFA at 8 weeks of age,6/10
same,treated mice remaining disease free at 52 weeks of age,"female NOD mice [3]; 25 ug ip in IFA at 8 weeks, 10 mice per group",2
same,Insulitis Score,female NOD mice [4],2.6 ± 0.6
same,Spleen Cell Proliferation (SI ± SEM) CPH,[5]; recall antigen CPH,11.5 ± 0.9 SI
same,Spleen Cell Proliferation (SI ± SEM) GAD,[5]; recall antigen GAD,15.4 ± 1.8 SI
same,Spleen Cell Proliferation (SI ± SEM) GAD Peptides #17,[5]; recall antigen GAD peptide #17,5.1 ± 0.6 SI
same,Spleen Cell Proliferation (SI ± SEM) GAD Peptides #34,[5]; recall antigen GAD peptide #34,5.1 ± 0.6 SI
same,Spleen Cell Proliferation (SI ± SEM) GAD Peptides #35,[5]; recall antigen GAD peptide #35,4.0 ± 0.2 SI
same,Spleen Cell Proliferation (SI ± SEM) hsp Peptide,[5]; recall antigen hsp peptide,6.6 ± 0.5 SI
same,Spleen Cell Proliferation (SI ± SEM) β-Gal,[5]; recall antigen β-Gal,1.1 ± 0.1 SI
insulin: human insulin purchased from Eli Lilly [reference compound],age at which the proliferative T-cell response to the antigen appeared,spleen cells of NOD mice,12 weeks
"segment C: human GAD65 amino acid residues 398-585, translated in vitro, 35S labeled (protein, UniProt Q05329 398-585, looked up, fragment, 35S label, human GAD65 amino acid residues 398-585, translated in vitro, 35S labeled) MGVPLQCSALLVREEGLMQNCNQMHASYLFQQDKHYDLSYDTGDKALQCGRHVDVFKLWLMWRAKGTTGFEAHVDKCLELAEYLYNIIKNREGYEMVFDGKPQHTNVCFWYIPPSLRTLEDNEERMSRLSKVAPVIKARMMEYGTTMVSYQPLGDKVNFFRMVISNPAATHQDIDFLIEEIERLGQDL",patients with antibodies reactive with the segment,[1],27%
"segment A: human GAD65 amino acid residues 1-224, translated in vitro, 35S labeled (protein, UniProt Q05329 1-224, looked up, fragment, 35S label, human GAD65 amino acid residues 1-224, translated in vitro, 35S labeled) MASPGSGFWSFGSEDGSGDSENPGTARAWCQVAQKFTGGIGNKLCALLYGDAEKPAESGGSQPPRAAARKAACACDQKPCSCSKVDVNYAFLHATDLLPACDGERPTLAFLQDVMNILLQYVVKSFDRSTKVIDFHYPNELLQEYNWELADQPQNLEEILMHCQTTLKYAIKTGHPRYFNQLSTGLDMVGLAADWLTSTANTNMFTYEIAPVFVLLEYVTLKKM",patients with antibodies reactive with the segment,[1],none
